# Source: patent US20110098177A1, “METHODS AND COMPOSITIONS OF PLANT MICRONUTRIENTS” (NOVUS INTERNATIONAL INC., priority 2006, published 2011)
# Like-named read-outs stand apart in the source and are kept apart here.
# Tests used:
# Format in all cases: in vivo
# [1] = tested on: Tygress tomato plants; experiment: Foliar nutrient concentration at 7 WAT, greenhouse tomato spring 2009 (Examples 13-15); settings: tomato leaves 1 week after treatment
# Summary of the method: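 Greenhouse 'Tygress' tomatoes in micronutrient-deficient medium received foliar treatments at 6 WAT (200 mL/plant, deionized water plus non-ionic surfactant). Newest non-applied leaves sampled at 7 WAT and analysed for N, P, K, Mg, Ca, B, Zn, Mn, Fe and Cu. Randomized complete block design with 6 replications; means separated by LSD at 5%.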
# [2] = tested on: Tygress tomato plants; experiment: Yields of tomato fruits, greenhouse spring 2009 (Examples 13-15)
# Summary of the method: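 Greenhouse 'Tygress' tomatoes in micronutrient-deficient medium received foliar Cu/Fe source treatments at 6 WAT (200 mL/plant, deionized water plus non-ionic surfactant). Marketable fruit was harvested three times from 10 WAT and graded by size. RCBD, 6 replications, GLM with LSD at 5%.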
# [3] = tested on: Tygress tomato plants; settings: for Toxicity (0-10): 0=no injury, 10=plant death
# Summary of the method: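 Greenhouse 'Tygress' tomatoes in micronutrient-deficient medium received foliar micronutrient treatments at 6 weeks after transplanting, 200 mL/plant in deionized water with non-ionic surfactant. Foliar injury rated visually 0 (none) to 10 (plant death); randomized complete block, 6 replications, LSD at 5%.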
# [4] = tested on: soybean plants (Asgrow 1102); experiment: Visual greenness ratings (1-5 scale) of soybean plants, open-field (Examples 11-12); settings: for Greenness of soybean plants compared to control, statement: Foxhome site, 29 July rating
# Method: The following experiments were performed on soybean plants growing in open-field plots during the summer and fall of 2008 at two production fields in West Central Minnesota. […] Trial design was a randomized complete block with 4 replications. Each plot measured 10' by 30' and consisted of five 22'' rows. Although all five rows of each plot were treated, only the center three rows (25' in length) of each plot were machine harvested. The two fields selected for these studies had historical Iron Deficiency Chlorosis (IDC) issues. The two field sites were planted by farmers with elite Roundup Ready commodity type soybean varieties with IDC tolerance (Asgrow 1102, Monsanto Corp.). […] BIOX-M was applied at a rate of 1.12 kg Mn/ha. […] All V4 treatments were applied in 10 gallons per acre of water with a backpack sprayer with a hand boom designed to “band” apply product directly to the plant row. Three nozzles with ConeJet TXVS-2 tips were oriented on either side and over the top of each row. This maximized the applied product to the plant tissue itself and minimized application of product to the soil surface. […] The V6 treatments (where applicable) were applied in 20 gallons per acre of water to increase the suspension of the BIOX products.
# [5] = tested on: soybean plants (Asgrow 1102); experiment: Soybean seed yield (Examples 11-12)
# Method: (§1) The following experiments were performed on soybean plants growing in open-field plots during the summer and fall of 2008 at two production fields in West Central Minnesota. […] Trial design was a randomized complete block with 4 replications. Each plot measured 10' by 30' and consisted of five 22'' rows. Although all five rows of each plot were treated, only the center three rows (25' in length) of each plot were machine harvested. The two fields selected for these studies had historical Iron Deficiency Chlorosis (IDC) issues. The two field sites were planted by farmers with elite Roundup Ready commodity type soybean varieties with IDC tolerance (Asgrow 1102, Monsanto Corp.). […] BIOX-M was applied at a rate of 1.12 kg Mn/ha. […] All V4 treatments were applied in 10 gallons per acre of water with a backpack sprayer with a hand boom designed to “band” apply product directly to the plant row. Three nozzles with ConeJet TXVS-2 tips were oriented on either side and over the top of each row. This maximized the applied product to the plant tissue itself and minimized application of product to the soil surface. […] The V6 treatments (where applicable) were applied in 20 gallons per acre of water to increase the suspension of the BIOX products. Soybean seed was harvested after soybean maturity was reached (3 October at […], and 17 Oct. 2008 at Foxhome) and seed yields for each experimental treatment group were determined. In addition, seed samples from each treatment were dried to 13% moisture content, then analyzed for protein and oil content.
# [6] = tested on: soybean plants (Asgrow 1102); experiment: Soybean seed protein and oil content (Examples 11-12); settings: in %
# Method: as §1
# [7] = BIOX-Cu at 0.46 and 0.55 lb/acre, Cu-sulfate at 0.8 lb/acre, BIOX-EDC at 0.4 lb/acre
compound,measurement,setting,value
"CSCCC(O)C(=O)[O-].CSCCC(O)C(=O)[O-].[Cu+2] (centres unmarked) [BIOX-Cu, Cu-HMTBA]",Foliar Cu concentration,[1]; Cu 0.14 lb/acre,72 ppm
same,Foliar Cu concentration,[1]; Cu 0.28 lb/acre,91 ppm
same,Foliar Cu concentration,[1]; Cu 0.46 lb/acre,208 ppm
same,Foliar Cu concentration,[1]; Cu 0.55 lb/acre,397 ppm
same,"Marketable tomato yields compared to non-treated control, statement",[2]; [7],did not alter marketable yields relative to the non-treated control
same,"Marketable tomato yields compared to non-treated control, statement",[2]; BIOX-Cu at the 0.14 and 0.28 lb/acre levels,significantly increased marketable tomato yields
same,Marketable yield,[2]; Cu 0.14 lb/acre,2350 a g/plant
same,Marketable yield,[2]; Cu 0.28 lb/acre,2500 a g/plant
same,Marketable yield,[2]; Cu 0.46 lb/acre,1250 b g/plant
same,Marketable yield,[2]; Cu 0.55 lb/acre,1700 b g/plant
same,"Toxicity compared to non-treated control plants, statement",[3]; [7],increased levels of toxicity
same,Toxicity (0-10),[3]; Cu 0.14 lb/acre,0
same,Toxicity (0-10),[3]; Cu 0.28 lb/acre,1
same,Toxicity (0-10),[3]; Cu 0.46 lb/acre,5
same,Toxicity (0-10),[3]; Cu 0.55 lb/acre,6
same,"Toxicity, statement",[3]; the two low levels of BIOX-Cu (0.14 and 0.28 lb/acre),no toxic effects
"CSCCC(O)C(=O)[O-].CSCCC(O)C(=O)[O-].[Mn+2] (centres unmarked) [BIOX-M, Mn-HMTBA]",Mean visual greenness scores (1-5),"[4]; 7.0 kg/ha, V4, Jul. 15, 2008 Rating, Foxhome",2.5
same,Mean visual greenness scores (1-5),"[4]; 7.0 kg/ha, V4, Jul. 15, 2008 Rating, Renville",2.9
same,Mean visual greenness scores (1-5),"[4]; 7.0 kg/ha, V4, Jul. 29, 2008 Rating, Foxhome",1.0 C
same,Mean visual greenness scores (1-5),"[4]; 7.0 kg/ha, V4, Jul. 29, 2008 Rating, Renville",1.3
same,"Greenness of soybean plants compared to control, statement",[4]; BIOX-M 1.12 kg Mn/ha,small but significant increase in greenness
same,Yield,"[5]; 7.0 kg/ha, V4, Foxhome",43.63 Bu/A
same,Yield,"[5]; 7.0 kg/ha, V4, Renville",24.15 Bu/A
same,Oil content (13% moisture),"[6]; 7.0 kg/ha, V4, Foxhome",18.28
same,Protein content (13% moisture),"[6]; 7.0 kg/ha, V4, Foxhome",32.90
same,Oil content (13% moisture),"[6]; 7.0 kg/ha, V4, Renville",19.97
same,Protein content (13% moisture),"[6]; 7.0 kg/ha, V4, Renville",31.97
Fe-HMTBA [BIOX-Fe],Mean visual greenness scores (1-5),"[4]; 0.558 kg/ha, V4, V6, Jul. 15, 2008 Rating, Foxhome",2.4
same,Mean visual greenness scores (1-5),"[4]; 0.558 kg/ha, V4, V6, Jul. 15, 2008 Rating, Renville",2.4
same,Mean visual greenness scores (1-5),"[4]; 0.558 kg/ha, V4, V6, Jul. 29, 2008 Rating, Foxhome",1.0 C
same,Mean visual greenness scores (1-5),"[4]; 0.558 kg/ha, V4, V6, Jul. 29, 2008 Rating, Renville",1.1
same,Mean visual greenness scores (1-5),"[4]; 0.558 kg/ha, V4, Jul. 15, 2008 Rating, Foxhome",2.8
same,Mean visual greenness scores (1-5),"[4]; 0.558 kg/ha, V4, Jul. 15, 2008 Rating, Renville",2.6
same,Mean visual greenness scores (1-5),"[4]; 0.558 kg/ha, V4, Jul. 29, 2008 Rating, Foxhome","1.4 B, C"
same,Mean visual greenness scores (1-5),"[4]; 0.558 kg/ha, V4, Jul. 29, 2008 Rating, Renville",1.1
same,Mean visual greenness scores (1-5),"[4]; 1.12 kg/ha, V4, V6, Jul. 15, 2008 Rating, Foxhome",2.6
same,Mean visual greenness scores (1-5),"[4]; 1.12 kg/ha, V4, V6, Jul. 15, 2008 Rating, Renville",2.6
same,Mean visual greenness scores (1-5),"[4]; 1.12 kg/ha, V4, V6, Jul. 29, 2008 Rating, Foxhome","1.5 A, B, C"
same,Mean visual greenness scores (1-5),"[4]; 1.12 kg/ha, V4, V6, Jul. 29, 2008 Rating, Renville",1.4
same,Mean visual greenness scores (1-5),"[4]; 1.12 kg/ha, V4, Jul. 15, 2008 Rating, Foxhome",2.5
same,Mean visual greenness scores (1-5),"[4]; 1.12 kg/ha, V4, Jul. 15, 2008 Rating, Renville",2.1
same,Mean visual greenness scores (1-5),"[4]; 1.12 kg/ha, V4, Jul. 29, 2008 Rating, Foxhome",1.0 C
same,Mean visual greenness scores (1-5),"[4]; 1.12 kg/ha, V4, Jul. 29, 2008 Rating, Renville",1.0
same,"Greenness of soybean plants compared to control, statement",[4]; higher rate (269 g Fe/ha) at V4 only,significantly increased the greenness in treated plants
same,"Greenness of soybean plants compared to control, statement",[4]; higher rate (269 g Fe/ha) at both V4 and V6,no change in greenness compared to control
same,Toxic effects on soybean plants (in words),[4]; iron concentrations 0.094% - 0.376% by weight,without toxic effects
same,"Greenness of soybean plants compared to control, statement",[4]; lower rate (134 g Fe/ha) at V4,had no effect on greenness
same,"Greenness of soybean plants compared to control, statement",[4]; lower rate (134 g Fe/ha) at both V4 and V6,significantly increased the greenness of the soybean plants
same,Yield,"[5]; 0.558 kg/ha, V4, V6, Foxhome",46.01 Bu/A
same,Yield,"[5]; 0.558 kg/ha, V4, V6, Renville",27.65 Bu/A
same,Yield,"[5]; 0.558 kg/ha, V4, Foxhome",43.17 Bu/A
same,Yield,"[5]; 0.558 kg/ha, V4, Renville",27.92 Bu/A
same,Yield,"[5]; 1.12 kg/ha, V4, V6, Foxhome",43.43 Bu/A
same,Yield,"[5]; 1.12 kg/ha, V4, V6, Renville",26.62 Bu/A
same,Yield,"[5]; 1.12 kg/ha, V4, Foxhome",44.23 Bu/A
same,Yield,"[5]; 1.12 kg/ha, V4, Renville",27.43 Bu/A
same,Oil content (13% moisture),"[6]; 0.558 kg/ha, V4, V6, Foxhome",18.42
same,Protein content (13% moisture),"[6]; 0.558 kg/ha, V4, V6, Foxhome",32.73
same,Oil content (13% moisture),"[6]; 0.558 kg/ha, V4, V6, Renville",20.16
same,Protein content (13% moisture),"[6]; 0.558 kg/ha, V4, V6, Renville",32.04
same,Oil content (13% moisture),"[6]; 0.558 kg/ha, V4, Foxhome",18.46
same,Protein content (13% moisture),"[6]; 0.558 kg/ha, V4, Foxhome",32.60
same,Oil content (13% moisture),"[6]; 0.558 kg/ha, V4, Renville",20.12
same,Protein content (13% moisture),"[6]; 0.558 kg/ha, V4, Renville",31.93
same,Oil content (13% moisture),"[6]; 1.12 kg/ha, V4, V6, Foxhome",18.40
same,Protein content (13% moisture),"[6]; 1.12 kg/ha, V4, V6, Foxhome",32.68
same,Oil content (13% moisture),"[6]; 1.12 kg/ha, V4, V6, Renville",20.10
same,Protein content (13% moisture),"[6]; 1.12 kg/ha, V4, V6, Renville",32.36
same,Oil content (13% moisture),"[6]; 1.12 kg/ha, V4, Foxhome",18.48
same,Protein content (13% moisture),"[6]; 1.12 kg/ha, V4, Foxhome",32.47
same,Oil content (13% moisture),"[6]; 1.12 kg/ha, V4, Renville",20.28
same,Protein content (13% moisture),"[6]; 1.12 kg/ha, V4, Renville",32.23
same,Foliar Fe concentration,[1]; Fe 0.28 lb/acre,249 ppm
same,Foliar Fe concentration,[1]; Fe 0.57 lb/acre,388 ppm
same,Foliar Fe concentration,[1]; Fe 1.12 lb/acre,517 ppm
same,Foliar Fe concentration,[1]; Fe 1.74 lb/acre,453 ppm
same,Foliar Fe concentration,[1]; Fe 2.3 lb/acre,383 ppm
same,"Marketable tomato yields compared to non-treated control, statement","[2]; BIOX-Fe at all levels, Fe-sulfate at 2.0 lb/acre, BIOX-EDF at 0.3 lb/acre",significantly higher marketable tomato yields than the non-treated control
same,Marketable yield,[2]; Fe 0.28 lb/acre,1750 g/plant
same,Marketable yield,[2]; Fe 0.57 lb/acre,1900 g/plant
same,Marketable yield,[2]; Fe 1.12 lb/acre,2100 g/plant
same,Marketable yield,[2]; Fe 1.74 lb/acre,1900 g/plant
same,Marketable yield,[2]; Fe 2.3 lb/acre,2400 g/plant
same,Toxicity (0-10),[3]; Fe 0.28 lb/acre,0
same,Toxicity (0-10),[3]; Fe 0.57 lb/acre,0
same,Toxicity (0-10),[3]; Fe 1.12 lb/acre,1
same,Toxicity (0-10),[3]; Fe 1.74 lb/acre,1
same,Toxicity (0-10),[3]; Fe 2.3 lb/acre,2
same,"Toxicity relative to the non-treated control, statement","[3]; all levels of BIOX-Fe, Fe-sulfate at 2.0 lb/acre, BIOX-EDF at 0.3 lb/acre",no increased toxicity relative to the non-treated control
